Results as given in patent publication US9777003B2, “Tricyclic heterocycles as bet protein inhibitors” (Incyte Corporation, priority 2013, dated 2017).
Structures can show the parent of a compound that is named as a salt.

Assays:
[1] = target: BRD4-BD1 (Homo sapiens (Human), UniProt O60885); experiment: BRD4 AlphaScreen assay, BRD4-BD1; type: binding; details: biotin-labeled tetra-acetylated histone H4 peptide, 75 min, room temperature, read-out: BRD4 BD-1 enzyme IC50
Experimental: (§1) BRD4-BD1 and BRD4-BD2 assays were conducted in white 384-well polystyrene plate in a final volume of 20 μL for BD1 and 40 μL for BD2. Inhibitors were first serially diluted in DMSO and added to the plate wells before the addition of other reaction components. The final concentration of DMSO in the assay was 1.25% (BD1) and 0.83% (BD2). The assays were carried out at room temperature for 75 min. in the assay buffer (50 mM HEPES, pH 7.4, 100 mM NaCl, 0.05% CHAPS, 0.01% BSA), containing 50 nM Biotin-labeled tetra-acetylated histone H4 peptide (H4Ac4), 3.8 nM (BRD4-BD1, BPS Bioscience #31040) or 20 nM (BRD4-BD2, BPS Bioscience #31041). The reaction followed by the addition of 20 μL of assay buffer supplemented with Streptavidin donor beads (PerkinElmer 6760002) and GSH Acceptor beads (PerkinElmer-AL109C) at 4 μg/mL under reduced light. After plate sealing, the plate was incubated in the dark at room temperature for 75 min. before reading on a PHERAstar FS plate reader (BMG Labtech). IC50 determination was performed by fitting the curve of percent control activity versus the log of the inhibitor concentration using the GraphPad Prism 5.0 software.

[2] = target: BRD4-BD2 (Homo sapiens (Human), UniProt O60885); experiment: BRD4 AlphaScreen assay, BRD4-BD2; type: binding; details: biotin-labeled tetra-acetylated histone H4 peptide, 75 min, room temperature, read-out: BRD4 BD-2 enzyme IC50
Experimental: as §1

IC50 [1]	IC50 [2]	Structure (SMILES)
100 to 1000 nM	≤ 100 nM	Cc1cc2c(ccc3nnc(C)n32)n1Cc1cccc(C(=O)NO)c1 [Example 31, 3-[(1,7-dimethyl-6H-pyrrolo[2,3-e][1,2,4]triazolo[4,3-a]pyridin-6-yl)methyl]-N-hydroxybenzamide Trifluoroacetate Salt]
100 to 1000 nM	≤ 100 nM	CNC(=O)c1cccc(Cn2c(C)cc3c2ccc2nnc(C)n23)c1 [Example 32, 3-[(1,7-dimethyl-6H-pyrrolo[2,3-e][1,2,4]triazolo[4,3-a]pyridin-6-yl)methyl]-N-methylbenzamide Trifluoroacetate Salt]
100 to 1000 nM	≤ 100 nM	CCNC(=O)c1cccc(Cn2c(C)cc3c2ccc2nnc(C)n23)c1 [Example 33, 3-[(1,7-dimethyl-6H-pyrrolo[2,3-e][1,2,4]triazolo[4,3-a]pyridin-6-yl)methyl]-N-ethylbenzamide Trifluoroacetate Salt]
≤ 100 nM	≤ 100 nM	COc1ccc(Cn2c(C)cc3c2ccc2nnc(C)n23)cc1 [Example 34, 6-(4-methoxybenzyl)-1,7-dimethyl-6H-pyrrolo[2,3-e][1,2,4]triazolo[4,3-a]pyridine]
≤ 100 nM	≤ 100 nM	Cc1cc2c(ccc3nnc(C)n32)n1Cc1ccc(O)cc1 [Example 35, 4-[(1,7-dimethyl-6H-pyrrolo[2,3-e][1,2,4]triazolo[4,3-a]pyridin-6-yl)methyl]phenol]
≤ 100 nM	≤ 100 nM	Cc1cc2c(ccc3nnc(C)n32)n1Cc1cccc(CNCCO)c1 [Example 36, 2-({3-[(1,7-dimethyl-6H-pyrrolo[2,3-e][1,2,4]triazolo[4,3-a]pyridin-6-yl)methyl]benzyl}amino)ethanol]
100 to 1000 nM	≤ 100 nM	Cc1cc2c(ccc3nnc(C)n32)n1Cc1cccc(CN(C)CCO)c1 [Example 37, 2-[{3-[(1,7-dimethyl-6H-pyrrolo[2,3-e][1,2,4]triazolo[4,3-a]pyridin-6-yl)methyl]benzyl}(methyl)amino]ethanol]
100 to 1000 nM	≤ 100 nM	Cc1cc2c(ccc3nnc(C)n32)n1Cc1cccc(CN2CCOCC2)c1 [Example 38, 1,7-dimethyl-6-[3-(morpholin-4-ylmethyl)benzyl]-6H-pyrrolo[2,3-e][1,2,4]triazolo[4,3-a]pyridine]
100 to 1000 nM	≤ 100 nM	Cc1cc2c(ccc3nnc(C)n32)n1Cc1cccc(CN[C@H]2C[C@H](O)C2)c1 [Example 39, (1r,3r)-3-((3-((1,7-dimethyl-6H-pyrrolo[2,3-e][1,2,4]triazolo[4,3-a]pyridin-6-yl)methyl)benzyl)amino)cyclobutanol]
≤ 100 nM	≤ 100 nM	Cc1cc2c(ccc3nnc(C)n32)n1Cc1cccc(CN(C)C)c1 [Example 40, 1-{3-[(1,7-dimethyl-6H-pyrrolo[2,3-e][1,2,4]triazolo[4,3-a]pyridin-6-yl)methyl]phenyl}-N,N-dimethylmethanamine]
≤ 100 nM	≤ 100 nM	CNCc1cccc(Cn2c(C)cc3c2ccc2nnc(C)n23)c1 [Example 41, 1-{3-[(1,7-dimethyl-6H-pyrrolo[2,3-e][1,2,4]triazolo[4,3-a]pyridin-6-yl)methyl]phenyl}-N-methylmethanamine]
≤ 100 nM	≤ 100 nM	CCNCc1cccc(Cn2c(C)cc3c2ccc2nnc(C)n23)c1 [Example 42, N-{3-[(1,7-dimethyl-6H-pyrrolo[2,3-e][1,2,4]triazolo[4,3-a]pyridin-6-yl)methyl]benzyl}ethanamine]
100 to 1000 nM	≤ 100 nM	CCNC(=O)Nc1cccc(Cn2c(C)cc3c2ccc2nnc(C)n23)c1 [Example 43, N-{3-[(1,7-dimethyl-6H-pyrrolo[2,3-e][1,2,4]triazolo[4,3-a]pyridin-6-yl)methyl]phenyl}-N′-ethylurea Trifluoroacetate Salt]
100 to 1000 nM	≤ 100 nM	Cc1cc2c(ccc3nnc(C)n32)n1Cc1cccc(NC(N)=O)c1 [Example 44, N-{3-[(1,7-dimethyl-6H-pyrrolo[2,3-e][1,2,4]triazolo[4,3-a]pyridin-6-yl)methyl]phenyl}urea]
≤ 100 nM	≤ 100 nM	Cc1cc2c(ccc3nnc(C)n32)n1Cc1cccc(CN2CCCC2)c1 [Example 45, 1,7-dimethyl-6-[3-(pyrrolidin-1-ylmethyl)benzyl]-6H-pyrrolo[2,3-e][1,2,4]triazolo[4,3-a]pyridine]
≤ 100 nM	≤ 100 nM	Cc1cc2c(ccc3nnc(C)n32)n1Cc1cccc(CN2CCCCC2)c1 [Example 46, 1,7-dimethyl-6-[3-(piperidin-1-ylmethyl)benzyl]-6H-pyrrolo[2,3-e][1,2,4]triazolo[4,3-a]pyridine]

IC50 [1]	IC50 [2]	Structure (SMILES)
100 to 1000 nM	≤ 100 nM	Cc1cc2c(ccc3nnc(C)n32)n1Cc1cccc(CN2CCN(C)CC2)c1 [Example 47, 1,7-dimethyl-6-{3-[(4-methylpiperazin-1-yl)methyl]benzyl}-6H-pyrrolo[2,3-e][1,2,4]triazolo[4,3-a]pyridine]
100 to 1000 nM	≤ 100 nM	Cc1cc2c(ccc3nnc(C)n32)n1Cc1cccc(CN2CCNCC2)c1 [Example 48, 1,7-dimethyl-6-[3-(piperazin-1-ylmethyl)benzyl]-6H-pyrrolo[2,3-e][1,2,4]triazolo[4,3-a]pyridine]
100 to 1000 nM	≤ 100 nM	Cc1cc2c(ccc3nnc(C)n32)n1Cc1ccc(CO)cc1 [Example 49, {4-[(1,7-dimethyl-6H-pyrrolo[2,3-e][1,2,4]triazolo[4,3-a]pyridin-6-yl)methyl]phenyl}methanol]
≤ 100 nM	≤ 100 nM	Cc1cc2c(ccc3nnc(C)n32)n1Cc1ccc(CN2CCC2)cc1 [Example 50, 6-[4-(azetidin-1-ylmethyl)benzyl]-1,7-dimethyl-6H-pyrrolo[2,3-e][1,2,4]triazolo[4,3-a]pyridine]
100 to 1000 nM	100 to 1000 nM	Cc1cc2c(ccc3nnc(C)n32)n1Cc1ccc(CN2CCCC2)cc1 [Example 51, 1,7-dimethyl-6-[4-(pyrrolidin-1-ylmethyl)benzyl]-6H-pyrrolo[2,3-e][1,2,4]triazolo[4,3-a]pyridine]
100 to 1000 nM	100 to 1000 nM	Cc1cc2c(ccc3nnc(C)n32)n1Cc1ccc(CN2CC(O)C2)cc1 [Example 52, 1-{4-[(1,7-dimethyl-6H-pyrrolo[2,3-e][1,2,4]triazolo[4,3-a]pyridin-6-yl)methyl]benzyl}azetidin-3-ol]
100 to 1000 nM	100 to 1000 nM	Cc1cc2c(ccc3nnc(C)n32)n1Cc1ccc(CN(C)C)cc1 [Example 53, 1-{4-[(1,7-dimethyl-6H-pyrrolo[2,3-e][1,2,4]triazolo[4,3-a]pyridin-6-yl)methyl]phenyl}-N,N-dimethylmethanamine]
100 to 1000 nM	≤ 100 nM	COC1CN(Cc2cccc(Cn3c(C)cc4c3ccc3nnc(C)n34)c2)C1 [Example 54, 6-{3-[(3-methoxyazetidin-1-yl)methyl]benzyl}-1,7-dimethyl-6H-pyrrolo[2,3-e][1,2,4]triazolo[4,3-a]pyridine]
100 to 1000 nM	≤ 100 nM	Cc1nc2c(ccc3nnc(C)n32)n1Cc1ccccc1 [Example 55, 3-benzyl-2,8-dimethyl-3H-imidazo[4,5-e][1,2,4]triazolo[4,3-a]pyridine]
100 to 1000 nM	≤ 100 nM	Cc1nnc2ccc3c(cc(CO)n3Cc3ccccc3)n12 [Example 56, (6-benzyl-1-methyl-6H-pyrrolo[2,3-e][1,2,4]triazolo[4,3-a]pyridin-7-yl)methanol]
1000 to 10000 nM	100 to 1000 nM	Cc1nnc2ccc3c(cc(Cn4ccnc4)n3Cc3ccccc3)n12 [Example 57, 6-benzyl-7-(1H-imidazol-1-ylmethyl)-1-methyl-6H-pyrrolo[2,3-e][1,2,4]triazolo[4,3-a]pyridine]
≤ 100 nM	≤ 100 nM	Cc1nnc2ccc3c(cc(C(N)=O)n3Cc3ccccc3)n12 [Example 58, 6-benzyl-1-methyl-6H-pyrrolo[2,3-e][1,2,4]triazolo[4,3-a]pyridine-7-carboxamide]
≤ 100 nM	≤ 100 nM	CCNC(=O)c1cc2c(ccc3nnc(C)n32)n1Cc1ccccc1 [Example 59, 6-benzyl-N-ethyl-1-methyl-6H-pyrrolo[2,3-e][1,2,4]triazolo[4,3-a]pyridine-7-carboxamide]
100 to 1000 nM	≤ 100 nM	Cc1nnc2ccc3c(cc(C(=O)N4CC(C#N)C4)n3Cc3ccccc3)n12 [Example 60, 1-[(6-benzyl-1-methyl-6H-pyrrolo[2,3-e][1,2,4]triazolo[4,3-a]pyridin-7-yl)carbonyl]azetidine-3-carbonitrile]
1000 to 10000 nM	100 to 1000 nM	Cc1nnc2ccc3c(cc(CCO)n3Cc3ccccc3)n12 [Example 61, 2-(6-benzyl-1-methyl-6H-pyrrolo[2,3-e][1,2,4]triazolo[4,3-a]pyridin-7-yl)ethanol]
≤ 100 nM	≤ 100 nM	Cc1nnc2ccc3c(cc(-c4ccn[nH]4)n3Cc3ccccc3)n12 [Example 62, 6-benzyl-1-methyl-7-(1H-pyrazol-5-yl)-6H-pyrrolo[2,3-e][1,2,4]triazolo[4,3-a]pyridine]
